Data set [1] relates to Hepatotoxicity.
Data set [2] deals with Hepatotoxicity. The source holds these as a separate data set.
Data set [3] deals with Hepatotoxicity. This is another data set of the same source.
The test system of data set [4] is Hepatotoxicity. The source holds these as a separate data set.
Data set [5] deals with Hepatotoxicity. This is another data set of the same source.
Data set [6] has as its system Hepatotoxicity. The source holds these as a separate data set.
Data set [7] deals with Hepatotoxicity. The source holds these as a separate data set.
For data set [8], the system named is Hepatotoxicity. The source holds these as a separate data set.
For data set [9], the system named is Hepatotoxicity. The source holds these as a separate data set.
Data set [10] deals with Hepatotoxicity. The source holds these as a separate data set.
Data set [11] has as its system Hepatotoxicity. This is another data set of the same source.
The test system of data set [12] is Hepatotoxicity. The source holds these as a separate data set.
The test system of data set [13] is Hepatotoxicity. The source holds these as a separate data set.
In data set [14] the test system is Hepatotoxicity. This is another data set of the same source.
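Throughout, for HepSE Combined Scores: combined hepatic side effect score as listed in the training data of the Drug Induced Liver Injury Prediction System (DILIps).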
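Throughout, for HepSE bilirubinemia: bilirubinemia hepatic side effect score drawn from the DILIps training data, a prediction system for drug-induced liver injury; call rule not given here.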
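Throughout, for HepSE cholecystitis: Cholecystitis-related hepatic side effect score drawn from the DILIps (drug-induced liver injury prediction) training data set; call rule not given here.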
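Throughout, for HepSE cholelithiasis: hepatic side effect score for cholelithiasis, drawn from the DILIps training data for predicting drug-induced liver injury; call rule not given here.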
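Throughout, for HepSE cirrhosis: cirrhosis hepatic side effect score taken from the DILIps (drug-induced liver injury prediction) training set; call rule not given here.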
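Throughout, for HepSE elevated liver function tests: hepatic side effect score for raised liver function tests, as recorded in the DILIps training set used for predicting drug-induced liver injury.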
Throughout, for HepSE hepatic failure: call rule not given here.
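Throughout, for HepSE hepatic necrosis: score of hepatic side effects for hepatic necrosis, drawn from the training data of DILIps, a prediction system for drug-induced liver injury; call rule not given here.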
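Throughout, for HepSE hepatitis: Hepatitis-related hepatic side effect score taken from the training data of DILIps, a prediction system for drug-induced liver injury; call rule not given here.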
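Throughout, for HepSE hepatomegaly: hepatic side effect score for hepatomegaly, taken from the training set of the DILIps drug-induced liver injury prediction system; call rule not given here.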
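Throughout, for HepSE jaundice: Jaundice-related hepatic side-effect score drawn from the training data of the DILIps (drug-induced liver injury prediction system); call rule not given here.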
Throughout, for HepSE liver disease: call rule not given here.
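Throughout, for HepSE liver fatty: hepatic side effect score for fatty liver, taken from the DILIps training set for predicting drug-induced liver injury; call rule not given here.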
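Throughout, for HepSE liver function tests abnormal: hepatic side effect score taken from the DILIps (drug-induced liver injury prediction system) training data, here covering abnormal liver function test findings.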

Molecule `CC(CN1c2ccccc2Sc2ccccc21)N(C)C` (stereo not given) [PROMETHAZINE] displayed a HepSE_bilirubinemia in the data set on Hepatotoxicity [1] of 0. This molecule also showed a HepSE_cholecystitis with Hepatotoxicity [2] of 0. The molecule also came in with a HepSE_cholelithiasis in the data set on Hepatotoxicity [3] of 0. In the data set on Hepatotoxicity [4], this molecule showed a HepSE_cirrhosis of 0. In the data set on Hepatotoxicity [5], the “HepSE_elevated liver function tests” value was 0. Besides, the HepSE_hepatic failure in the data set on Hepatotoxicity [6] was determined as 0. The HepSE_hepatic necrosis in the data set with Hepatotoxicity [7] came to 0. The molecule also returned a HepSE_hepatitis in the data set with Hepatotoxicity [8] of 0. The HepSE_hepatomegaly in the data set with Hepatotoxicity [9] is 0. Further, the HepSE_jaundice in the data set on Hepatotoxicity [10] is 1. Further, the HepSE_liver disease in the data set on Hepatotoxicity [11] was found to be 0. For the same molecule, the HepSE_liver fatty with Hepatotoxicity [12] amounted to 0. The “HepSE_liver function tests abnormal” value with Hepatotoxicity [13] turned out to be 0. Further, in the data set on Hepatotoxicity [14], the “HepSE_Combined Scores” value worked out at 1.
`CC(C)[N+](C)(CCOC(=O)C1c2ccccc2Oc2ccccc21)C(C)C` [PROPANTHELINE] gave a HepSE_bilirubinemia in the data set with Hepatotoxicity [1] of 0. In addition, the HepSE_cholecystitis in the data set with Hepatotoxicity [2] was 0. In addition, the HepSE_cholelithiasis in the data set on Hepatotoxicity [3] is listed as 0. The HepSE_cirrhosis in the data set with Hepatotoxicity [4] was 0. For the same molecule, the “HepSE_elevated liver function tests” value in the data set with Hepatotoxicity [5] worked out at 0. The HepSE_hepatic failure in the data set with Hepatotoxicity [6] is 0. The molecule further yielded a HepSE_hepatic necrosis in the data set with Hepatotoxicity [7] of 0. In the data set on Hepatotoxicity [8], this molecule registered a HepSE_hepatitis of 0. In the data set on Hepatotoxicity [9], this molecule had a HepSE_hepatomegaly of 0. Moreover, the HepSE_jaundice with Hepatotoxicity [10] is reported as 0. This molecule returned a HepSE_liver disease in the data set on Hepatotoxicity [11] of 0. In the data set with Hepatotoxicity [12], this molecule gave a HepSE_liver fatty of 0. In addition, the “HepSE_liver function tests abnormal” value in the data set on Hepatotoxicity [13] turned out to be 0. Moreover, in the data set with Hepatotoxicity [14], the “HepSE_Combined Scores” value was 0.
Turning to `CCCOc1ccc(C(=O)OCCN(CC)CC)cc1N` [PROPARACAINE], the HepSE_bilirubinemia in the data set with Hepatotoxicity [1] was 0. This molecule also showed a HepSE_cholecystitis in the data set with Hepatotoxicity [2] of 0. In addition, the HepSE_cholelithiasis in the data set on Hepatotoxicity [3] is 0. The HepSE_cirrhosis in the data set with Hepatotoxicity [4] was determined as 0. In addition, the “HepSE_elevated liver function tests” value in the data set on Hepatotoxicity [5] came out at 0. Besides, the HepSE_hepatic failure with Hepatotoxicity [6] came to 0. Besides, the HepSE_hepatic necrosis in the data set with Hepatotoxicity [7] was found to be 0. The HepSE_hepatitis in the data set on Hepatotoxicity [8] amounted to 0. Moreover, the HepSE_hepatomegaly in the data set on Hepatotoxicity [9] is reported as 0. The same molecule showed a HepSE_jaundice in the data set on Hepatotoxicity [10] of 0. Further, the HepSE_liver disease in the data set with Hepatotoxicity [11] was 0. In the data set on Hepatotoxicity [12], this molecule showed a HepSE_liver fatty of 0. Moreover, the “HepSE_liver function tests abnormal” value in the data set with Hepatotoxicity [13] is 0. Besides, the “HepSE_Combined Scores” value in the data set with Hepatotoxicity [14] is on record as 0.
In the data set on Hepatotoxicity [1] (Liver), `CC(C)c1cccc(C(C)C)c1O` [PROPOFOL] showed a HepSE_bilirubinemia of 0. The HepSE_cholecystitis with Hepatotoxicity [2] (Liver) stood at 0. The molecule further came in with a HepSE_cholelithiasis with Hepatotoxicity [3] (Liver) of 0. The molecule further had a HepSE_cirrhosis with Hepatotoxicity [4] (Liver) of 0. In addition, the “HepSE_elevated liver function tests” value in the data set with Hepatotoxicity [5] (Liver) is 0. In addition, the HepSE_hepatic failure in the data set with Hepatotoxicity [6] (Liver) amounted to 0. The molecule also displayed a HepSE_hepatic necrosis with Hepatotoxicity [7] (Liver) of 0. This molecule yielded a HepSE_hepatitis in the data set with Hepatotoxicity [8] (Liver) of 0. The same molecule yielded a HepSE_hepatomegaly in the data set with Hepatotoxicity [9] (Liver) of 1. Also, the HepSE_jaundice with Hepatotoxicity [10] (Liver) is listed as 0. In the data set with Hepatotoxicity [11] (Liver), this molecule came in with a HepSE_liver disease of 0. In the data set with Hepatotoxicity [12] (Liver), this molecule registered a HepSE_liver fatty of 0. In the data set with Hepatotoxicity [13] (Liver), the “HepSE_liver function tests abnormal” value was 0. In addition, the “HepSE_Combined Scores” value in the data set on Hepatotoxicity [14] (Liver) is 1.
On to `CCC(=O)O[C@](Cc1ccccc1)(c1ccccc1)[C@H](C)CN(C)C` [PROPOXYPHENE], for which, in the data set with Hepatotoxicity [1], the HepSE_bilirubinemia is listed as 0. For the same molecule, the HepSE_cholecystitis in the data set with Hepatotoxicity [2] is given as 0. In the data set on Hepatotoxicity [3], this molecule displayed a HepSE_cholelithiasis of 0. In the data set with Hepatotoxicity [4], this molecule yielded a HepSE_cirrhosis of 0. For the same molecule, the “HepSE_elevated liver function tests” value with Hepatotoxicity [5] worked out at 0. In the data set with Hepatotoxicity [6], this molecule showed a HepSE_hepatic failure of 0. Besides, the HepSE_hepatic necrosis in the data set on Hepatotoxicity [7] was 0. In the data set with Hepatotoxicity [8], this molecule came in with a HepSE_hepatitis of 0. This molecule came in with a HepSE_hepatomegaly with Hepatotoxicity [9] of 0. Also, the HepSE_jaundice with Hepatotoxicity [10] is on record as 1. In the data set with Hepatotoxicity [11], this molecule had a HepSE_liver disease of 0. The molecule also displayed a HepSE_liver fatty with Hepatotoxicity [12] of 0. In the data set with Hepatotoxicity [13], the “HepSE_liver function tests abnormal” value is 1. Also, the “HepSE_Combined Scores” value with Hepatotoxicity [14] is on record as 2.
`CC(C)NCC(O)COc1cccc2ccccc12` (stereo not given) [PROPRANOLOL] gave a HepSE_bilirubinemia with Hepatotoxicity [1] of 0. The molecule further displayed a HepSE_cholecystitis in the data set with Hepatotoxicity [2] of 0. In the data set on Hepatotoxicity [3], this molecule displayed a HepSE_cholelithiasis of 0. Further, in the data set on Hepatotoxicity [4], the HepSE_cirrhosis came to 0. Further, the “HepSE_elevated liver function tests” value in the data set on Hepatotoxicity [5] came out at 0. In the data set on Hepatotoxicity [6], this molecule had a HepSE_hepatic failure of 0. Further, the HepSE_hepatic necrosis in the data set on Hepatotoxicity [7] is 0. In addition, in the data set with Hepatotoxicity [8], the HepSE_hepatitis is listed as 0. Besides, in the data set with Hepatotoxicity [9], the HepSE_hepatomegaly was 0. The molecule further came in with a HepSE_jaundice in the data set on Hepatotoxicity [10] of 0. In the data set on Hepatotoxicity [11], this molecule came in with a HepSE_liver disease of 0. The HepSE_liver fatty in the data set with Hepatotoxicity [12] turned out to be 0. In the data set with Hepatotoxicity [13], the “HepSE_liver function tests abnormal” value was determined as 0. For the same molecule, the “HepSE_Combined Scores” value with Hepatotoxicity [14] is given as 0.
In the data set with Hepatotoxicity [1] (Liver), `CCCc1cc(=O)[nH]c(=S)[nH]1` [PROPYLTHIOURACIL] registered a HepSE_bilirubinemia of 0. Moreover, in the data set with Hepatotoxicity [2] (Liver), the HepSE_cholecystitis was 0. This molecule also had a HepSE_cholelithiasis with Hepatotoxicity [3] (Liver) of 0. In the data set on Hepatotoxicity [4] (Liver), this molecule yielded a HepSE_cirrhosis of 0. The “HepSE_elevated liver function tests” value in the data set on Hepatotoxicity [5] (Liver) was determined as 0. In the data set on Hepatotoxicity [6] (Liver), this molecule registered a HepSE_hepatic failure of 0. This molecule also gave a HepSE_hepatic necrosis in the data set with Hepatotoxicity [7] (Liver) of 0. In the data set on Hepatotoxicity [8] (Liver), the HepSE_hepatitis is 1. Also, the HepSE_hepatomegaly in the data set on Hepatotoxicity [9] (Liver) stood at 0. The HepSE_jaundice in the data set on Hepatotoxicity [10] (Liver) was 1. In the data set with Hepatotoxicity [11] (Liver), this molecule came in with a HepSE_liver disease of 0. The HepSE_liver fatty with Hepatotoxicity [12] (Liver) came out at 0. Besides, the “HepSE_liver function tests abnormal” value in the data set with Hepatotoxicity [13] (Liver) was 0. The “HepSE_Combined Scores” value in the data set on Hepatotoxicity [14] (Liver) is listed as 2.
As to `CNCCCC1c2ccccc2C=Cc2ccccc21` [PROTRIPTYLINE], in the data set with Hepatotoxicity [1] (Liver), the HepSE_bilirubinemia was determined as 0. This molecule also registered a HepSE_cholecystitis in the data set on Hepatotoxicity [2] (Liver) of 0. The same molecule registered a HepSE_cholelithiasis in the data set with Hepatotoxicity [3] (Liver) of 0. The molecule further gave a HepSE_cirrhosis with Hepatotoxicity [4] (Liver) of 0. In the data set with Hepatotoxicity [5] (Liver), the “HepSE_elevated liver function tests” value is on record as 0. Also, the HepSE_hepatic failure in the data set with Hepatotoxicity [6] (Liver) was determined as 0. This molecule showed a HepSE_hepatic necrosis in the data set on Hepatotoxicity [7] (Liver) of 0. This molecule returned a HepSE_hepatitis in the data set on Hepatotoxicity [8] (Liver) of 0. In the data set with Hepatotoxicity [9] (Liver), this molecule showed a HepSE_hepatomegaly of 0. The molecule also registered a HepSE_jaundice with Hepatotoxicity [10] (Liver) of 1. In the data set on Hepatotoxicity [11] (Liver), this molecule yielded a HepSE_liver disease of 0. Also, the HepSE_liver fatty in the data set with Hepatotoxicity [12] (Liver) is 0. The “HepSE_liver function tests abnormal” value in the data set on Hepatotoxicity [13] (Liver) is 0. In addition, the “HepSE_Combined Scores” value in the data set with Hepatotoxicity [14] (Liver) is on record as 1.
`NC(=O)c1cnccn1` [PYRAZINAMIDE] came in with a HepSE_bilirubinemia in the data set on Hepatotoxicity [1] of 0. For the same molecule, in the data set on Hepatotoxicity [2], the HepSE_cholecystitis amounted to 0. Besides, the HepSE_cholelithiasis with Hepatotoxicity [3] amounted to 0. Further, the HepSE_cirrhosis in the data set on Hepatotoxicity [4] was determined as 0. The “HepSE_elevated liver function tests” value in the data set on Hepatotoxicity [5] amounted to 0. The same molecule showed a HepSE_hepatic failure in the data set with Hepatotoxicity [6] of 0. The same molecule gave a HepSE_hepatic necrosis in the data set with Hepatotoxicity [7] of 0. In addition, the HepSE_hepatitis in the data set with Hepatotoxicity [8] is reported as 0. The molecule further had a HepSE_hepatomegaly in the data set with Hepatotoxicity [9] of 0. In addition, the HepSE_jaundice in the data set on Hepatotoxicity [10] came to 0. In the data set with Hepatotoxicity [11], the HepSE_liver disease amounted to 0. This molecule registered a HepSE_liver fatty in the data set on Hepatotoxicity [12] of 0. The “HepSE_liver function tests abnormal” value with Hepatotoxicity [13] worked out at 0. In addition, in the data set with Hepatotoxicity [14], the “HepSE_Combined Scores” value is recorded as 0.
Molecule `CN(C)C(=O)Oc1ccc[n+](C)c1` [PYRIDOSTIGMINE] displayed a HepSE_bilirubinemia in the data set on Hepatotoxicity [1] of 0. The HepSE_cholecystitis in the data set on Hepatotoxicity [2] is 0. Moreover, the HepSE_cholelithiasis in the data set on Hepatotoxicity [3] came out at 0. The HepSE_cirrhosis with Hepatotoxicity [4] is recorded as 0. The “HepSE_elevated liver function tests” value with Hepatotoxicity [5] is on record as 0. The molecule further yielded a HepSE_hepatic failure with Hepatotoxicity [6] of 0. In addition, the HepSE_hepatic necrosis in the data set with Hepatotoxicity [7] was 0. For the same molecule, the HepSE_hepatitis with Hepatotoxicity [8] was 0. The HepSE_hepatomegaly with Hepatotoxicity [9] was 0. Further, the HepSE_jaundice with Hepatotoxicity [10] is on record as 0. Also, the HepSE_liver disease with Hepatotoxicity [11] was 0. This molecule also displayed a HepSE_liver fatty in the data set with Hepatotoxicity [12] of 0. In addition, the “HepSE_liver function tests abnormal” value with Hepatotoxicity [13] was determined as 0. The “HepSE_Combined Scores” value in the data set on Hepatotoxicity [14] is recorded as 0.

These data come from ChEMBL document CHEMBL1909294, “Translating clinical findings into knowledge in drug safety evaluation--drug induced liver injury prediction system (DILIps)” (PLoS Comput Biol, 2011).
